Data on five compounds can be found in patent US11111242B2, “Pyrrolo[2,3-d]pyrimidinyl, pyrrolo[2,3-b]pyrazinyl and pyrrolo[2,3-d]pyridinyl acrylamides” (Pfizer Inc., priority 2013, dated 2021).

SMILES strings stand for the structures. Read-outs that look alike come from different tables or passages of the source.

By IC50 is commonly meant the concentration that gives 50% inhibition.

A short description of data set [1]: Stability of JAK3 covalent inhibitors in human whole blood. Type of data set: in vitro ADME. The note with it: 37° C.; for half-life at 1 μM: both sexes, read-out: Human blood stability t1/2.
Description: Human blood was collected from one male and one female healthy subjects at the Occupational Health & Wellness Center at Pfizer, Groton, Conn. and pooled for each study. Both rat and human blood was collected freshly into K2-EDTA tubes and kept on ice. An aliquot of the blood was transferred to microtubes and pre-warmed for 10 min at 37° C. using a heat block. […] An aliquot of the incubation mixture was removed at designated time points during the course of the incubation, mixed with an aliquot of acetonitrile containing an internal standard, vortexed and centrifuged. The resulting supernatants were removed and subjected to LC-MS/MS analyses to determine parent compound concentrations. Peak area ratios of the parent compound vs the internal standard were used to determine the % of parent compound remaining vs incubation time.
Data set [2] deals with IL-15 induced STAT5 phosphorylation in Human Whole Blood (total lymphocytes). Nature of the data set: HWB IL-15 Induced STAT5 Phosphorylation Assay. The class given is cell-based. The note with it: IL-15 stimulated, read-out: HWB-IL15-pSTAT5 IC50.
Data set [3] deals with IL-15 induced P-STAT5 in human PBMC (total lymphocytes). Nature of the data set: PBMC IL-15 Induced P-STAT5. Type of data set: cell-based. The note with it: IL-15 stimulated, read-out: PBMC IL15-pSTAT5 IC50. A digest of the protocol: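 Thawed human PBMC in RPMI, preincubated 30 min at 37 °C, then IL-15 stimulated. Cells methanol-permeabilized (90%, on ice 20 min) and stained for phospho-STAT5. Read by flow cytometry, gated on total lymphocytes.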

The next data set has as its target JAK3 enzyme (Homo sapiens (Human), UniProt P52333). Nature of the data set: JAK Caliper Enzyme Assay at 4 μM or 1 mM ATP. The class given is biochemical. Here is the method:
JAK Caliper Enzyme Assay at 4 μM or 1 mM ATP
Test article was solubilized in dimethyl sulfoxide (DMSO) to a stock concentration of 30 mM. An 11-point half log dilution series was created in DMSO with a top concentration of 600 μM. […] The compound plates were diluted 1 to 60 resulting in a top final assay compound concentration of 10 μM and a 2% DMSO concentration.
Test article and assay controls were added to a 384-well plate. Reaction mixtures contained 20 mM HEPES, pH 7.4, 10 mM magnesium chloride, 0.01% bovine serum albumin (BSA), 0.0005% Tween 20, 4 μM or 1 mM ATP and 1 μM peptide substrate. […] The assays were initiated by the addition 1 nM JAK3 enzyme and were incubated at room temperature 75 minutes for JAK3. Enzyme concentrations and incubation times were optimized for each new enzyme preps and were modified slightly over time to ensure 20%-30% phosphorylation. The assays were stopped with a final concentration of 10 mM EDTA, 0.1% Coating Reagent and 100 mM HEPES, pH=7.4. The assay plates were placed on a Caliper Life Science Lab Chip 3000 (LC3000) instrument, and each well was sampled using appropriate separation conditions to measure the unphosphorylated and phosphorylated peptide.

Where [4] appears, read: read-out: JAK3 (1 mM ATP) IC50, 1 mM ATP.

Chain of JAK3 enzyme (P52333 whole entry, species assumed): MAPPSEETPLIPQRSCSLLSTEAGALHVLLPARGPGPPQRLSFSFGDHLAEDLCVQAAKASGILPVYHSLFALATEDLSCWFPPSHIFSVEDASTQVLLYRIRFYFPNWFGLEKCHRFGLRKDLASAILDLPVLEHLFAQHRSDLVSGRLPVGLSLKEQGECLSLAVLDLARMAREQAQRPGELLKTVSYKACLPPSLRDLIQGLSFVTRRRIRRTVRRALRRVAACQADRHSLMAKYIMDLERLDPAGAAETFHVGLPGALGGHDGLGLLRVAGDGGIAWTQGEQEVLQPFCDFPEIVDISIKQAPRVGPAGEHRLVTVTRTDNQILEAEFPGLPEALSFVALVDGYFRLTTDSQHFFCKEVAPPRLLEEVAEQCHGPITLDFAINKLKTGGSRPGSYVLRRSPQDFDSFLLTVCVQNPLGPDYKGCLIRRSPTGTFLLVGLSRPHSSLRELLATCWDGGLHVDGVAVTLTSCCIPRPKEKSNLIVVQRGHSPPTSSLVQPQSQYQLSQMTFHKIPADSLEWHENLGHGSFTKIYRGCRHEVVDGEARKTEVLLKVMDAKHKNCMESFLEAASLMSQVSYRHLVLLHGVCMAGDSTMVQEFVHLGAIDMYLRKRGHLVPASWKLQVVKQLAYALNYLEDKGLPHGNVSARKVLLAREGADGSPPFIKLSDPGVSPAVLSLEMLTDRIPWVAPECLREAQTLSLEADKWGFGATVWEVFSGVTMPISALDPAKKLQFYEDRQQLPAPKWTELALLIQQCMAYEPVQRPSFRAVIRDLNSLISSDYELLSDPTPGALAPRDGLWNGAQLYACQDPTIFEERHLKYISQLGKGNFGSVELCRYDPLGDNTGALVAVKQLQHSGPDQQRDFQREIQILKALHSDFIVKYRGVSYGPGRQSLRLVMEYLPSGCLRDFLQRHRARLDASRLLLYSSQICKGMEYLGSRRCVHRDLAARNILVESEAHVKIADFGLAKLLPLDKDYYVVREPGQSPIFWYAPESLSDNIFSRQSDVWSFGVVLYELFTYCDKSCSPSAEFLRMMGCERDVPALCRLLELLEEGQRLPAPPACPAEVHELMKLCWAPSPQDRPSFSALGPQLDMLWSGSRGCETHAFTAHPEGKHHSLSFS

`C=CC(=O)N1C[C@@H](Nc2ncnc3[nH]ccc23)[C@@H]2CC[C@H]1C2` (racemic) [Example 116, Rac-1-((1R,4R,5S)-4-(7H-pyrrolo[2,3-d]pyrimidin-4-ylamino)-2-azabicyclo[3.2.1]octan-2-yl)prop-2-en-1-one]: the half-life at 1 μM in data set [1] was 4.68 h. The IC50 in data set [2] (Lymphocyte) was over 10 µM; in data set [3] (Homo sapiens, PBMC), over 10 µM.

Turning to `C=CC(=O)N1CCN(c2cnc3[nH]cc(C(=O)NC(C)C)c3n2)C[C@H]1CC` [Example 311, 2-[(3R)-4-acryloyl-3-ethylpiperazin-1-yl]-N-(propan-2-yl)-5H-pyrrolo[2,3-b]pyrazine-7-carboxamide], the half-maximal inhibitory concentration (IC50) on JAK3 enzyme (setting [4]) came out at 0.22 µM; in data set [3] it was 0.696 µM.

With `C=CC(=O)N1C[C@@H](O)C[C@@H](Nc2ncnc3[nH]cc(Cl)c23)C1` [Example 162, 1-{(3R,5S)-3-[(5-Chloro-7H-pyrrolo[2,3-d]pyrimidin-4-yl)amino]-5-hydroxypiperidin-1-yl}prop-2-en-1-one], the half-life at 1 μM in data set [1] is over 6 h. Further, the figures for the IC50 in data set [2] (Lymphocyte) and in data set [3] were 1 µM and 0.361 µM, respectively.

On to `C=CC(=O)N1CCC(Nc2cnc3[nH]cc(C(=O)N[C@@H](C)C(=O)NCCC#N)c3n2)CC1` [Example 264, 2-[(1-acryloylpiperidin-4-yl)amino]-N-{(2S)-1-[(2-cyanoethyl)aminop]-oxopropan-2-yl}-5H-pyrrolo[2,3-b]pyrazine-7-carboxamide], for which the IC50 on JAK3 enzyme (read-out: JAK3 (4 μM ATP) IC50, 4 μM ATP) came to 0.0026 µM; at JAK3 enzyme (setting [4]), 0.226 µM; in data set [3], 4.48 µM.

For `C=CC(=O)N1CC2CCN(c3cnc4[nH]cc(C(=O)NC(C)C)c4n3)C2C1` (centres unmarked) [Example 178, 2-(5-acryloylhexahydropyrrolo[3,4-b]pyrrol-1(2H)-yl)-N-(propan-2-yl)-5H-pyrrolo[2,3-b]pyrazine-7-carboxamide], the “Human blood stability t1/2” value in data set [1] (1 μM) was 2.38 h. Moreover, the IC50 in data set [2] worked out at 2.56 µM; in data set [3] it was 0.208 µM.
